Measurements taken from ChEMBL document CHEMBL4699655, “Optimization of the In Vivo Potency of Pyrazolopyrimidine MALT1 Protease Inhibitors by Reducing Metabolism and Increasing Potency in Whole Blood” (J Med Chem, 2020).

Assays:
[1] = Protein binding in human plasma; assay type: ADME, cell-free; settings: read-out: PPB (converted)
[2] = Protein binding in rat plasma; assay type: ADME, cell-free; settings: read-out: PPB (converted)
[3] = Intrinsic clearance in rat liver microsomes; assay type: ADME, Microsome; settings: read-out: CLH
[4] = Intrinsic clearance in mouse liver microsomes; assay type: ADME, Microsome; settings: read-out: CLH
[5] = Lipophilicity, logP of the compound; settings: octanol/water
[6] = Intrinsic clearance in human liver microsomes; assay type: ADME, Microsome; settings: read-out: CLH
[7] = target: T1, Mucosa-associated lymphoid tissue lymphoma translocation protein 1 (Homo sapiens, UniProt Q9UDY8); experiment: Inhibition of MALT1 (unknown origin) using Ac-Trp-Leu-Arg-Ser-Arg^Cys(PT14)-NH2 as substrate preincubated for 60 mins followed by substrate addition and measured after 60 mins by fluorescence assay
T1 sequence (Q9UDY8 whole entry): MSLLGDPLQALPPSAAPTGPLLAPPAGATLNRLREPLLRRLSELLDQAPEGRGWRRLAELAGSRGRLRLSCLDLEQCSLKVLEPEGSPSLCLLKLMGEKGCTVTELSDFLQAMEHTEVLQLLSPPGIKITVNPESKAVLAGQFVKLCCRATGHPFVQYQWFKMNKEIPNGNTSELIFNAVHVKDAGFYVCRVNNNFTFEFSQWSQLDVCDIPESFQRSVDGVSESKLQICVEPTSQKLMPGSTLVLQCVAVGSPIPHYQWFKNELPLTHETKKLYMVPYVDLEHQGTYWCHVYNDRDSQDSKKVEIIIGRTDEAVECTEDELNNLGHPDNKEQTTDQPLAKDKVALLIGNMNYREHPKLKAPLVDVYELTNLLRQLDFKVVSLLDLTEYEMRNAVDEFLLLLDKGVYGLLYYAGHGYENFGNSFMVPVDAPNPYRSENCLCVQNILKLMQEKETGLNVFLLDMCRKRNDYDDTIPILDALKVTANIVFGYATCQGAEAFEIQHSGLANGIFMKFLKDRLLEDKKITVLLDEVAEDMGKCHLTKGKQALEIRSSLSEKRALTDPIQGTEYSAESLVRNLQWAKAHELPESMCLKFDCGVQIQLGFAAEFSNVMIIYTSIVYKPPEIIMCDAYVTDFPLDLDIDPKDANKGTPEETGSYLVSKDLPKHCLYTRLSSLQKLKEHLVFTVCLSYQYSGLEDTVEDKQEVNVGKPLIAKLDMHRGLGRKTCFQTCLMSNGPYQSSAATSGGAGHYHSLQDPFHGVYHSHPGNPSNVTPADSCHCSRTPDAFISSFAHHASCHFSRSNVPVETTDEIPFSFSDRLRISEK

[8] = system: Rattus norvegicus; experiment: Anti-autoimmune disease activity in OFA rat model of T-cell dependent B cell response assessed as reduction in SRBC-induced IgM producing B cells at 3 mg/kg, po BID for 4 days starting 2 days prior to immunization by ex vivo plaque forming assay relative to control; settings: 96 h, read-out: INH
[9] = system: Rattus norvegicus; experiment: Anti-autoimmune disease activity in OFA rat model of T-cell dependent B cell response assessed as reduction in SRBC-induced IgM producing B cells dosed orally twice daily for 4 days starting 2 days prior to immunization by ex vivo plaque forming assay relative to control; assay type: functional
[10] = Cmax in blood of OFA rat model of T-cell dependent B cell response at 10 mg/kg, po BID for 4 days starting 2 days prior to immunization and measured after 3 hrs; assay type: ADME, organism-based; parameters: route oral, dose 10 mg/kg, time 4 day
[11] = Cmax in blood of OFA rat model of T-cell dependent B cell response at 3 mg/kg, po BID for 4 days starting 2 days prior to immunization and measured after 14 hrs; assay type: ADME, organism-based; parameters: route oral, dose 3 mg/kg, time 4 day
[12] = Clearance in rat at 1 mg/kg, iv via cassette dosing; assay type: ADME, organism-based; settings: in vivo
[13] = Half life in rat at 1 mg/kg, iv via cassette dosing; assay type: ADME, organism-based; settings: in vivo
[14] = Cmax in blood of OFA rat model of T-cell dependent B cell response at 10 mg/kg, po BID for 4 days starting 2 days prior to immunization and measured after 14 hrs; assay type: ADME, organism-based; parameters: route oral, time 4 day, dose 10 mg/kg
[15] = Cmax in blood of OFA rat model of T-cell dependent B cell response at 3 mg/kg, po BID for 4 days starting 2 days prior to immunization and measured after 3 hrs; assay type: ADME, organism-based; parameters: route oral, dose 3 mg/kg, time 4 day
[16] = system: Rattus norvegicus; experiment: Anti-autoimmune disease activity in OFA rat model of T-cell dependent B cell response assessed as reduction in SRBC-induced IgM producing B cells at 10 mg/kg, po BID for 4 days starting 2 days prior to immunization by ex vivo plaque forming assay relative to control; settings: 96 h, read-out: INH
[17] = Clearance in rat; assay type: ADME; settings: in vivo
[18] = target: T2, Mucosa-associated lymphoid tissue lymphoma translocation protein 1 (Homo sapiens) (UniProt Q9UDY8); experiment: Ratio of IC50 for inhibition of MALT1 in human whole blood assessed as reduction in PMA//anti-CD28 antibody-induced IL2 level to IC50 for inhibition of MALT1 in PMA-stimulated human Jurkat T cells assessed as reduction in IL2 level; assay type: tissue-based
T2 sequence (whole entry): T1 sequence (Q9UDY8 whole entry)

[19] = target: T1, Mucosa-associated lymphoid tissue lymphoma translocation protein 1; experiment: Inhibition of MALT1 in human whole blood assessed as reduction in PMA//anti-CD28 antibody-induced IL2 level pre-incubated for 1 hrs before stimulation with PMA//anti-CD28 antibody by MSD assay; assay type: tissue-based
[20] = Clearance in mouse; assay type: ADME, organism-based; settings: in vivo
[21] = Terminal half life in Sprague-Dawley rat at 1 mg/kg, iv; assay type: ADME, organism-based; settings: in vivo, read-out: beta t1/2 (converted)
[22] = AUC (0 to 24 hrs) in Sprague-Dawley rat at 3 mg/kg, po; assay type: ADME, organism-based; parameters: time < 24 hr, route oral, dose 3 mg/kg; settings: in vivo
[23] = Cmax in Sprague-Dawley rat at 3 mg/kg, po; assay type: ADME, organism-based; parameters: route oral, dose 3 mg/kg; settings: in vivo
[24] = AUC (0 to 24 hrs) in Balb/C mouse at 3 mg/kg, po; assay type: ADME, organism-based; parameters: time < 24 hr, route oral, dose 3 mg/kg; settings: in vivo
[25] = Clearance in Balb/C mouse at 1 mg/kg, iv; assay type: ADME, organism-based; settings: in vivo
[26] = Terminal half life in Balb/C mouse at 1 mg/kg, iv; assay type: ADME, organism-based; settings: in vivo, read-out: beta t1/2 (converted)
[27] = Apparent volume of distribution at steady state in Balb/C mouse at 1 mg/kg, iv; assay type: ADME, organism-based; settings: in vivo, read-out: Vdss(app)
[28] = Oral bioavailability in Sprague-Dawley rat at 3 mg/kg; assay type: ADME, organism-based; settings: in vivo
[29] = Clearance in Sprague-Dawley rat at 1 mg/kg, iv; assay type: ADME, organism-based; settings: in vivo
[30] = Oral bioavailability in Balb/C mouse at 3 mg/kg; assay type: ADME, organism-based; settings: in vivo
[31] = Apparent volume of distribution at steady state in Sprague-Dawley rat at 1 mg/kg, iv; assay type: ADME, organism-based; settings: in vivo, read-out: Vdss(app)
[32] = Cmax in Balb/C mouse at 3 mg/kg, po; assay type: ADME, organism-based; parameters: route oral, dose 3 mg/kg; settings: in vivo

| SMILES | fraction unbound [1] | fraction unbound [2] | microsomal CLint [3] | microsomal CLint [4] | logP [5] | microsomal CLint [6] | other results |
| --- | --- | --- | --- | --- | --- | --- | --- |
| CO[C@H](C)c1c(NC(=O)Nc2cnc(-n3nccn3)c(Cl)c2)cnc2cc(Cl)nn12 | 0.023 | 0.032 | < 25 µL/min/mg | – | – | – | – |
| O=C(Nc1cnc(-n2nccn2)c(Cl)c1)Nc1cnc2cc(Cl)nn2c1C1CC1 | < 0.01 | 0.013 | 50.4 µL/min/mg | < 25 µL/min/mg | 3.2 | < 25 µL/min/mg | – |
| COCc1c(NC(=O)Nc2cnc(-n3nccn3)c(Cl)c2)cnc2cc(Cl)nn12 | 0.019 | 0.035 | < 25 µL/min/mg | – | 3 | < 25 µL/min/mg | – |
| COC[C@H](C)c1c(NC(=O)Nc2cnc(-n3nccn3)c(Cl)c2)cnc2cc(Cl)nn12 | 0.014 | 0.012 | 60.9 µL/min/mg | < 25 µL/min/mg | 3.4 | 81.4 µL/min/mg | – |
| O=C(Nc1cnc(-n2nccn2)c(Cl)c1)Nc1cnc2cc(Cl)nn2c1C1CCOCC1 | 0.012 | 0.023 | 25.5 µL/min/mg | – | 3 | < 25 µL/min/mg | – |
| Cc1c(NC(=O)Nc2ccnc(C(F)(F)F)c2)cnc2cc(Cl)nn12 | – | – | < 25 µL/min/mg | – | – | < 25 µL/min/mg | IC50 [7]: 0.998 µM |
| CC(C)c1c(NC(=O)Nc2cnc(-n3nccn3)c(Cl)c2)cnc2cc(Cl)nn12 | < 0.01 | < 0.01 | < 25 µL/min/mg | < 25 µL/min/mg | 4 | < 25 µL/min/mg | inhibition in vivo at 3 mg/kg [8]: 60%; ED50 ([9]; po, 96 h, time 4 day): 3 mg/kg; Activity ([9]; time 4.0 day): Dose-dependent effect; Cmax [10]: 7600 nM; Cmax [11]: 400 nM; clearance [12]: 18 mL/min/kg; half-life [13]: 5.4 h; Cmax [14]: 3300 nM; Cmax [15]: 1500 nM; inhibition in vivo at 10 mg/kg [16]: 96% |
| C[C@H]1COC[C@H](C)N1c1c(NC(=O)Nc2ccnc(C(F)(F)F)c2)cnc2cc(Cl)nn12 | – | – | – | – | – | 114 µL/min/mg | clearance [17]: 25 mL/min/kg; Ratio IC50 [18]: 50; IC50 [19]: 9 µM; clearance [12]: 46 mL/min/kg; half-life [13]: 3.3 h; clearance [20]: 15 mL/min/kg |
| COC[C@@H](C)c1c(NC(=O)Nc2cnc(-n3nccn3)c(Cl)c2)cnc2cc(Cl)nn12 | 0.015 | 0.011 | 70.1 µL/min/mg | – | 3.4 | < 25 µL/min/mg | – |
| CO[C@@H](C)c1c(NC(=O)Nc2ccnc(C(F)(F)F)c2)cnc2cc(Cl)nn12 | 0.038 | 0.027 | < 25 µL/min/mg | < 25 µL/min/mg | – | < 25 µL/min/mg | half-life [21]: 9.6 h; AUC [22]: 13.4 µM·h; Cmax [23]: 700 nM; AUC [24]: 2.3 µM·h; clearance [25]: 28 mL/min/kg; half-life [26]: 1.2 h; Vd [27]: 3 L/kg; bioavailability [28]: 86%; clearance [29]: 9 mL/min/kg; bioavailability [30]: 50%; Vd [31]: 5.3 L/kg; Cmax [32]: 500 nM |
| CC(C)c1c(NC(=O)Nc2ccnc(C(F)(F)F)c2)cnc2cc(Cl)nn12 | – | – | < 25 µL/min/mg | – | – | 61 µL/min/mg | – |
